In US8389679B2, “Targeted antimicrobial moieties” (priority 2009, dated 2013):
“Also recorded” adds a separate entry of the source.

System: target microorganisms
Test: Screen of synthesized peptides for binding to target microorganisms (targeting peptides, Tables 2 and 3)
Conditions: microorganism(s) the targeting peptide was identified as binding to (Table 3)
Experimental: Once noted, these peptides were batch synthesized on a multiplex peptide synthesizer, yielding 5-10 mg of each peptide that could readily be screened for biological activity (e.g., binding activity and/or antimicrobial activity.
Other suitable targeting peptides include the peptides that have been identified as binding to particular target organisms as shown in Table 3 and/or Table 4.

Substance | Target(s)
1T-27 (ALFVSLEQFLVVVAKSVFALCHSGTLS; synthetic novel tartgeting peptide IT-27) | S. mutans; also recorded: S. aureus; also recorded: S. epidermidis; also recorded: C. jeikeium; also recorded: C. xerosis; also recorded: C. striatum; also recorded: P. aeruginosa
1T-20 (PALVDLSNKEAVWAVLDDHS; synthetic novel tartgeting peptide IT-20) | S. mutans; also recorded: P. aeruginosa
1T-147 (GVENRRFYERDVSKVSMMTSEAVAPRGGSK; synthetic novel tartgeting peptide IT-147) | A. naeslundii, F. nucleatum,; also recorded: P. gingivalis,; also recorded: T. denticolaS. gordonii,; also recorded: S. mitis, S. mutans, S. oralis,; also recorded: S. salivarious, S. sanguinis
1T-2 (NIFEYFLE; synthetic novel tartgeting peptide IT-2) | S. gordonii; also recorded: S. mitis; also recorded: S. oralis; also recorded: V. atypica; also recorded: Lactobacillus casei; also recorded: Saliva-derived biofilms; also recorded: S. mutans; also recorded: S. sanguinis
1T-52 (DEYPAKLPLSDKGATEPRRH; synthetic novel tartgeting peptide IT-52) | S. aureus; also recorded: C. xerosis; also recorded: P. aeruginosa
1T-37 (YIVGALVILAVAGLIYSMLRKA; synthetic novel tartgeting peptide IT-37) | S. mutans; also recorded: S. aereus; also recorded: S. epidermidis; also recorded: C. jeikeium; also recorded: C. xerosis; also recorded: C. striatum; also recorded: P. aeruginosa
1T-169 (FARVRRLHQNRILTQPLTNLKYCLRQPIYSD; synthetic novel tartgeting peptide IT-169) | A. naeslundii, F. nucleatum,; also recorded: P. gingivalis; also recorded: S. epidermidis,; also recorded: S. gordonii, S. mitis, S. mutans,; also recorded: S. oralis, S. salivarious,; also recorded: S. sanguinis
1T-160 (AQYKYINKLLN; synthetic novel tartgeting peptide IT-160) | A. naeslundii, F. nucleatum,; also recorded: P. gingivalis,; also recorded: T. denticolaS. gordonii,; also recorded: S. mitis, S. mutans, S. oralis,; also recorded: S. salivarious, S. sanguinis
1T-125 (DAITGGNPPLSDTDGLRP; synthetic novel tartgeting peptide IT-125) | S. epidermidis, S. gordonii,; also recorded: S. mutans, S. oralis
1T-98 (VRSAKAVKALTAAGYTGELVNVSGGMKAWLGQ; synthetic novel tartgeting peptide IT-98) | A. naeslundii, F. nucleatum,; also recorded: P. gingivalis; also recorded: S. epidermidis,; also recorded: S. gordonii, S. mitis, S. mutans,; also recorded: S. oralis, S. salivarious,; also recorded: S. sanguinis
1T-122 (GAIPDPVTHRVDWEEDHQTRPSR; synthetic novel tartgeting peptide IT-122) | S. mitis
1T-167 (SRMSEHSPAGLVFEVGPMDKGSFIILDSYHPTVKK; synthetic novel tartgeting peptide IT-167) | A. naeslundii, F. nucleatum,; also recorded: P. gingivalis; also recorded: S. epidermidis,; also recorded: S. gordonii, S. mitis, S. mutans,; also recorded: S. oralis, S. salivarious,; also recorded: S. sanguinis
1T-54 (RWVSCNPSWRIQ; synthetic novel tartgeting peptide IT-54) | S. epidermidis; also recorded: C. xerosis; also recorded: C. striatum; also recorded: P. aeruginosa
1T-77 (EMRISRIILDFLFLRKK; synthetic novel tartgeting peptide IT-77) | S. pneumoniae
1T-47 (VIKISVPGQVQMLIP; synthetic novel tartgeting peptide IT-47) | S. mutans; also recorded: S. epidermidis; also recorded: P. aeruginosa
1T-153 (YIACPGYFY; synthetic novel tartgeting peptide IT-153) | A. naeslundii, F. nucleatum,; also recorded: P. gingivalis; also recorded: S. epidermidis,; also recorded: S. gordonii, S. mitis, S. mutans,; also recorded: S. oralis, S. salivarious,; also recorded: S. sanguinis
1T-109 (VTTNVRQGAGS; synthetic novel tartgeting peptide IT-109) | A. naeslundiiS. epidermidis,; also recorded: S. gordonii,; also recorded: S. mitis, S. mutans, S. oralis,; also recorded: S. salivarious, S. sanguinis
1T-49 (SLVRIHDQQPWVTRGAFIDAARTCS; synthetic novel tartgeting peptide IT-49) | S. aureus; also recorded: S. epidermidis; also recorded: C. jeikeium; also recorded: P. aeruginosa
1T-40 (QRVSLWSEVEHEFR; synthetic novel tartgeting peptide IT-40) | S. mutans; also recorded: P. aeruginosa
1T-100 (LDPLEPRIAPPGDRSHQGAPACHRDPLRGRSARDAER; synthetic novel tartgeting peptide IT-100) | S. gordonii, S. mitis, S. mutans
1T-123 (LVRRNAVAGRSDGLAGAEQLDLVRLQGVL; synthetic novel tartgeting peptide IT-123) | S. gordonii
1T-76 (EMRLSKFFRDFILWRKK; synthetic novel tartgeting peptide IT-76) | S. pneumoniae

Substance | Target(s)
1T-10 (SPAGLPGDGDEA; synthetic novel tartgeting peptide IT-10) | M. xanthus
1T-162 (QKAKEESDRKAAVSYNGFHRVNVVSIPK; synthetic novel tartgeting peptide IT-162) | A. naeslundii, F. nucleatum,; also recorded: P. gingivalis,; also recorded: T. denticolaS. gordonii,; also recorded: S. mitis, S. mutans, S. oralis,; also recorded: S. salivarious, S. sanguinis
1T-101 (RLRVGRATDLPLTSFAVGVVRNLPDAPAH; synthetic novel tartgeting peptide IT-101) | A. naeslundii, P. gingivalis; also recorded: S. epidermidis,; also recorded: S. gordonii, S. mitis, S. mutans,; also recorded: S. oralis, S. sanguinis
1T-93 (AMRSVNQA; synthetic novel tartgeting peptide IT-93) | S. epidermidis, S. gordonii,; also recorded: S. mitis, S. mutans,; also recorded: S. oralis, S. sanguinis
1T-71 (KIDTNQWPPNKEG; synthetic novel tartgeting peptide IT-71) | P. aeruginosa
1T-18 (YSKTLHFAD; synthetic novel tartgeting peptide IT-18) | S. aureus; also recorded: S. epidermidis; also recorded: C. striatum; also recorded: P. aeruginosa
1T-115 (LLIERFSNHH; synthetic novel tartgeting peptide IT-115) | A. naeslundii, F. nucleatum,; also recorded: P. gingivalis; also recorded: S. epidermidis,; also recorded: S. gordonii, S. mitis, S. mutans,; also recorded: S. oralis, S. salivarious,; also recorded: S. sanguinis
1T-107 (SPVPRFTAVGGVSRGSP; synthetic novel tartgeting peptide IT-107) | A. naeslundiiS. epidermidis,; also recorded: S. gordonii,; also recorded: S. mitis, S. mutans, S. oralis,; also recorded: S. salivarious, S. sanguinis
1T-79 (FGTPWSITNFWKKNFNDRPDFDSDRRRY; synthetic novel tartgeting peptide IT-79) | S. pneumoniae
1T-111 (GRLSRREEDPATSIILLRGAYRMAVF; synthetic novel tartgeting peptide IT-111) | A. naeslundii, F. nucleatum,; also recorded: P. gingivalis; also recorded: S. epidermidis,; also recorded: S. gordonii, S. mitis, S. mutans,; also recorded: S. oralis, S. salivarious,; also recorded: S. sanguinis
1T-110 (LAAKTAVCVGRAFM; synthetic novel tartgeting peptide IT-110) | A. naeslundii, P. gingivalis; also recorded: S. epidermidis,; also recorded: S. gordonii, S. mitis, S. mutans,; also recorded: S. oralis, S. sanguinis
1T-81 (AIATGLDIVDGKFDGYLWA; synthetic novel tartgeting peptide IT-81) | S. pneumoniae
1T-72 (EPTDGVACKER; synthetic novel tartgeting peptide IT-72) | P. aeruginosa
1T-78 (FFKTIFVLILGALGVAAGLYIEKNYIDK; synthetic novel tartgeting peptide IT-78) | S. pneumoniae
1T-170 (AYGKVFSMDIMLSENDKLIVLRISHHSAWH; synthetic novel tartgeting peptide IT-170) | P. gingivalis
1T-137 (PLNFYRAVKENRLPLSEKNINDFTNIKLKVSPKLINLLQESSIFYNFSPKKRNTN; synthetic novel tartgeting peptide IT-137) | A. naeslundii, F. nucleatum,; also recorded: P. gingivalis; also recorded: S. epidermidis,; also recorded: S. gordonii, S. mitis, S. mutans,; also recorded: S. oralis, S. salivarious,; also recorded: S. sanguinis
1T-50 (HSDEPIPNILFKSDSVH; synthetic novel tartgeting peptide IT-50) | P. aeruginosa
1T-96 (VAGACAQPFGGQ; synthetic novel tartgeting peptide IT-96) | S. gordonii, S. mitis, S. mutans,; also recorded: S. oralis, S. sanguinis
1T-149 (SVRAVKPIDETVARHFPGDFIVN; synthetic novel tartgeting peptide IT-149) | A. naeslundii, F. nucleatum,; also recorded: P. gingivalis,; also recorded: T. denticolaS. gordonii,; also recorded: S. mitis, S. mutans, S. oralis,; also recorded: S. salivarious, S. sanguinis
1T-21 (YVEEAVRAALKKEARISTEDTPVNLPSFDC; synthetic novel tartgeting peptide IT-21) | S. mutans; also recorded: P. aeruginosa
1T-139 (AVAGAAVGALLGNDARSTAVGAAIGGALGAGAGELTKNK; synthetic novel tartgeting peptide IT-139) | A. naeslundiiS. gordonii,; also recorded: S. mitis, S. mutans, S. oralis
